Experimental data reported in patent US10981926B2 (Janssen Pharmaceutica NV, priority 2016, dated 2021).

How the values were obtained:
rGABA-gated Cl− channel = experiment: GABA-Gated Cl Channel Antagonist Radioligand Binding Assay; parameters: species or system rat; details: 10 μM single point, [35S]-TBPS, cerebral cortex membrane homogenates
Method in brief: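 Values give percent inhibition of control specific […] (3 nM) binding at a single 10 μM compound concentration. Cerebral cortex membranes, 120 min, 22° C, phosphate buffer pH 7.4 with 500 mM NaCl; 20 μM picrotoxinin sets nonspecific binding; filtration and scintillation read-out.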

[1] = biological target: T1, wild-type Androgen Receptor (AR-wt) (Homo sapiens (Human), UniProt P10275); experiment: LNCaP-AR-wt ANT reporter assay (antagonist mode); assay type: cell-based; details: for LNCaP-AR-wt ANT pIC50 / IC50: antagonist mode, pIC50 = −Log10(IC50 in Molar); for Emax: maximum % inhibition of R1881 control response over the tested concentration range, read-out: LNCaP-AR-wt ANT MAX % Inh; for IC50: read-out: LNCaP-AR-wt ANT pIC50 (converted)
T1 sequence (P10275 whole entry): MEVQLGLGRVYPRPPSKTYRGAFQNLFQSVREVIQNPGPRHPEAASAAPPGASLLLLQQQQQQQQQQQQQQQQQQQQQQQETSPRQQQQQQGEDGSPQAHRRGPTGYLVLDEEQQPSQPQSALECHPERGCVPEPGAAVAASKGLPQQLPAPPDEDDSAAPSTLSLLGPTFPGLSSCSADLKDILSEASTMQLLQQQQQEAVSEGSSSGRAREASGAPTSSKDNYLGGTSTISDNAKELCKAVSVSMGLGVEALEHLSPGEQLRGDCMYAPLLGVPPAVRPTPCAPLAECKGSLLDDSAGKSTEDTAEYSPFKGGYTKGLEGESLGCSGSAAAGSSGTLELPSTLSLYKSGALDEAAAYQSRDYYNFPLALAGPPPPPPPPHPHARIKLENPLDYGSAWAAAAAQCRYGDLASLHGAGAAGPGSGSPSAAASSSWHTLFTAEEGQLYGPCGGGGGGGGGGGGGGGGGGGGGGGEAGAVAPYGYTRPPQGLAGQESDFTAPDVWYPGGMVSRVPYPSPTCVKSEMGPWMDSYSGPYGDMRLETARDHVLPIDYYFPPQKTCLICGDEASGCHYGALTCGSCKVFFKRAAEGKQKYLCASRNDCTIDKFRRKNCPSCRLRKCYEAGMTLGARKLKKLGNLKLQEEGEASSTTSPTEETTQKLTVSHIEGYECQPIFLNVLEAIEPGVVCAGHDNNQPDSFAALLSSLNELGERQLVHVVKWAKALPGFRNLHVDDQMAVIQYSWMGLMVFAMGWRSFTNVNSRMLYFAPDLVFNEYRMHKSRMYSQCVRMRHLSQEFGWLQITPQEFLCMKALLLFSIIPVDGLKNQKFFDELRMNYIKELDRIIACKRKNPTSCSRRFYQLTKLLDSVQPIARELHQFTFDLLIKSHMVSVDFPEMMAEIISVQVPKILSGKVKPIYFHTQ

[2] = biological target: T2, F876L mutant Androgen Receptor (AR-F876L) (Homo sapiens (Human), UniProt P10275, F877L); experiment: LNCaP-AR-F876L ANT reporter assay (antagonist mode); assay type: cell-based; details: for LNCaP-AR-F876L ANT pIC50 / IC50: antagonist mode, pIC50 = −Log10(IC50 in Molar); for Emax: maximum % inhibition of R1881 control response over the tested concentration range, read-out: LNCaP-AR-F876L ANT MAX % Inh; for IC50: read-out: LNCaP-AR-F876L ANT pIC50 (converted)
T2 sequence (P10275 whole entry F877L): as the sequence (P10275 whole entry) above, with F877L counted along it

[3] = biological target: T2, F876L mutant Androgen Receptor (AR-F876L); experiment: LNCaP-AR-F876L AG reporter assay (agonist mode); assay type: cell-based; details: for EC50: read-out: LNCaP-AR-F876L AG pEC50 (converted); for Emax: maximum % stimulation (agonist response) over the tested concentration range, read-out: LNCaP-AR-F876L AG MAX % Stim
[4] = biological target: T1, wild-type Androgen Receptor (AR-wt); experiment: LNCaP-AR-wt AG reporter assay (agonist mode); assay type: cell-based; details: for EC50: read-out: LNCaP-AR-wt AG pEC50 (converted); for Emax: maximum % stimulation (agonist response) over the tested concentration range, read-out: LNCaP-AR-wt AG MAX % Stim
[5] = agonist mode, pEC50 = −Log10(EC50 in Molar)

Row | rGABA-gated Cl− channel % inh @10 μM (rGABA-gated Cl− channel) [%] | LNCaP-AR-wt ANT pIC50 [1] | Emax [1] [%] | LNCaP-AR-F876L ANT pIC50 [2] | Emax [2] [%] | EC50 [3, 5] [µM] | Emax [3] [%] | EC50 [4, 5] [µM] | Emax [4] [%] | IC50 [1] [µM] | IC50 [2] [µM] | Compound | LNCaP-AR-F876L AG pEC50 [3, 5] | LNCaP-AR-wt AG pEC50 [4, 5]
1 | −0.5 | 7.12 | 98.8 | 7.43 | 101 | > 15.1 | 0.1 | > 15.1 | 0.7 |  |  | N#Cc1ncc(N2C(=O)C3(CCC3)N(c3ccc(OC4CCNCC4)cc3)C2=S)cc1Cl [Cpd 44, 3-chloro-5-[5-oxo-8-[4-(4-piperidyloxy)phenyl]-7-thioxo-6,8-diazaspiro[3.4]octan-6-yl]pyridine-2-carbonitrile] |  | 
2 | 37.2 | 6.45 | 102 | 6.69 | 100 | > 15.1 | 0.2 | > 15.1 | 0 |  |  | N#Cc1ncc(N2C(=O)C3(CCC3)N(c3ccc(CN4CCNCC4)cc3)C2=S)cc1C(F)(F)F [Cpd 48, 5-[5-oxo-8-[4-(piperazin-1-ylmethyl)phenyl]-7-thioxo-6,8-diazaspiro[3.4]octan-6-yl]-3-(trifluoromethyl)pyridine-2-carbonitrile] |  | 
3 | 86.4 |  | 101 |  | 99.5 | > 15.1 | 0.4 | > 15.1 | 0.3 | 0.105 | 0.0562 | CCOC(=O)N1CCC(CNC(=O)c2ccc(N3C(=S)N(c4cnc(C#N)c(C(F)(F)F)c4)C(=O)C34CCC4)cc2)CC1 [Cpd 49, ethyl 4-[[[4-[6-[6-cyano-5-(trifluoromethyl)-3-pyridyl]-5-oxo-7-thioxo-6,8-diazaspiro[3.4]octan-8-yl]benzoyl]amino]methyl]piperidine-1-carboxylate] |  | 
4 | 13.2 |  | 101 |  | 98 | > 15.1 | 1.4 | > 15.1 | 0.1 | 0.0162 | 0.00871 | N#Cc1ncc(N2C(=O)C3(CCC3)N(c3ccc(OC4CCN(CCO)CC4)cc3)C2=S)cc1Cl [Cpd 50, 3-chloro-5-[8-[4-[[1-(2-hydroxyethyl)-4-piperidyl]oxy]phenyl]-5-oxo-7-thioxo-6,8-diazaspiro[3.4]octan-6-yl]pyridine-2-carbonitrile] |  | 
5 | 52.4 |  | 102 |  | 100 | > 15.1 | 0.1 | > 15.1 | 0.4 | 0.123 | 0.0457 | CNC(=O)N1CCN(Cc2ccc(N3C(=S)N(c4cnc(C#N)c(C(F)(F)F)c4)C(=O)C34CCC4)cc2)CC1 [Cpd 53, 4-[[4-[6-[6-cyano-5-(trifluoromethyl)-3-pyridyl]-5-oxo-7-thioxo-6,8-diazaspiro[3.4]octan-8-yl]phenyl]methyl]-N-methyl-piperazine-1-carboxamide] |  | 
6 | 93.0 |  | 101 |  | 97.1 | > 15.1 | 0.7 | > 15.1 | 1.3 | 0.0813 | 0.0933 | N#Cc1ncc(N2C(=O)C3(CCC3)N(c3ccc(OCC4CC(F)(F)CN4)cc3)C2=S)cc1C(F)(F)F (stereo not drawn) [Cpd 54, 5-[8-[4-[(4,4-difluoropyrrolidin-2-yl)methoxy]phenyl]-5-oxo-7-thioxo-6,8-diazaspiro[3.4]octan-6-yl]-3-(trifluoromethyl)pyridine-2-carbonitrile] |  | 
7 | 100.0 |  | 104 |  | 101 | > 15.1 | 0.5 | > 15.1 | 0.6 | 0.0724 | 0.0407 | CCOC(=O)N1CCN(Cc2ccc(N3C(=S)N(c4cnc(C#N)c(C(F)(F)F)c4)C(=O)C34CCC4)cc2)CC1 [Cpd 55, Ethyl 4-[[4-[6-[6-cyano-5-(trifluoromethyl)-3-pyridyl]-5-oxo-7-thioxo-6,8-diazaspiro[3.4]octan-8-yl]phenyl]methyl]piperazine-1-carboxylate] |  | 
8 | 88.1 |  | 101 |  | 98.1 | > 15.1 | 1 | > 15.1 | 0 | 0.0871 | 0.0933 | CCOC(=O)N1CCN(c2ccc(N3C(=S)N(c4cnc(C#N)c(C(F)(F)F)c4)C(=O)C34CCC4)cc2)CC1 [Cpd 58, Ethyl 4-[4-[6-[6-cyano-5-(trifluoromethyl)-3-pyridyl]-5-oxo-7-thioxo-6,8-diazaspiro[3.4]octan-8-yl]phenyl]piperazine-1-carboxylate] |  | 
9 | 16.0 |  | 102 |  | 100 | > 15.1 | 0.1 | > 15.1 | 0 | 0.135 | 0.0562 | CN1CC(COc2ccc(N3C(=S)N(c4cnc(C#N)c(C(F)(F)F)c4)C(=O)C34CCC4)cc2)C1 [Cpd 59, 5-[8-[4-[(1-methylazetidin-3-yl)methoxy]phenyl]-5-oxo-7-thioxo-6,8-diazaspiro[3.4]octan-6-yl]-3-(trifluoromethyl)pyridine-2-carbonitrile] |  | 
10 | 91.5 |  | 99.2 |  | 98.1 | > 15.1 | 0.6 | > 15.1 | 0.8 | 0.0229 | 0.00955 | N#CCN1CCC(Oc2ccc(N3C(=S)N(c4cnc(C#N)c(C(F)(F)F)c4)C(=O)C34CCC4)cn2)CC1 [Cpd 60, 5-[8-[6-[[1-(cyanomethyl)-4-piperidyl]oxy]-3-pyridyl]-5-oxo-7-thioxo-6,8-diazaspiro[3.4]octan-6-yl]-3-(trifluoromethyl)pyridine-2-carbonitrile] |  | 
11 | 26.1 |  | 99.2 |  | 98.8 | > 15.1 | 0.3 | > 15.1 | 0.4 | 0.0295 | 0.0363 | COCCN1CCC(Oc2ccc(N3C(=S)N(c4cnc(C#N)c(C(F)(F)F)c4)C(=O)C34CCC4)cn2)CC1 [Cpd 61, 5-[8-[6-[[1-(2-methoxyethyl)-4-piperidyl]oxy]-3-pyridyl]-5-oxo-7-thioxo-6,8-diazaspiro[3.4]octan-6-yl]-3-(trifluoromethyl)pyridine-2-carbonitrile] |  | 
12 | 61.0 |  | 100 |  | 98.4 | > 15.1 | 0.2 | > 15.1 | 0.5 | 0.038 | 0.0269 | Cc1cc(N2C(=O)C3(CCC3)N(c3ccc(OC4CCN(CC(F)(F)F)CC4)nc3)C2=S)cnc1C#N [Cpd 62, 3-methyl-5-[5-oxo-7-thioxo-8-[6-[[1-(2,2,2-trifluoroethyl)-4-piperidyl]oxy]-3-pyridyl]-6,8-diazaspiro[3.4]octan-6-yl]pyridine-2-carbonitrile] |  | 
13 | 13.0 |  | 102 |  | 101 | > 15.1 | 0.1 | > 15.1 | 0 | 0.0813 | 0.0692 | N#Cc1ncc(N2C(=O)C3(CCC3)N(c3ccc(OC4CCN(CCO)CC4)nc3)C2=S)cc1C(F)(F)F [Cpd 63, 5-[8-[6-[[1-(2-hydroxyethyl)-4-piperidyl]oxy]-3-pyridyl]-5-oxo-7-thioxo-6,8-diazaspiro[3.4]octan-6-yl]-3-(trifluoromethyl)pyridine-2-carbonitrile] |  | 
14 | 5.8 | 7.30 | 101 | 7.33 | 100 | > 15.1 | 0.1 | > 15.1 | -0.2 |  |  | N#Cc1ncc(N2C(=O)C3(CCC3)N(c3ccc(OC4CCNCC4)nc3)C2=S)cc1Cl [Cpd 64, 3-chloro-5-[5-oxo-8-[6-(4-piperidyloxy)-3-pyridyl]-7-thioxo-6,8-diazaspiro[3.4]octan-6-yl]pyridine-2-carbonitrile] |  | 

Row | Compound | rGABA-gated Cl− channel % inh @10 μM (rGABA-gated Cl− channel) [%] | LNCaP-AR-wt ANT pIC50 [1] | Emax [1] [%] | LNCaP-AR-F876L ANT pIC50 [2] | Emax [2] [%] | EC50 [3, 5] [µM] | Emax [3] [%] | EC50 [4, 5] [µM] | Emax [4] [%] | IC50 [1] [µM] | IC50 [2] [µM] | LNCaP-AR-F876L AG pEC50 [3, 5] | LNCaP-AR-wt AG pEC50 [4, 5]
15 | CN1[C@@H]2CC[C@H]1C[C@H](Oc1ccc(N3C(=S)N(c4cnc(C#N)c(C(F)(F)F)c4)C(=O)C34CCC4)cc1)C2 [Cpd 52, 5-[8-[4-[[(1R,3s,5S)-8-methyl-8-azabicyclo[3.2.1]octan-3-yl]oxy]phenyl]-5-oxo-7-thioxo-6,8-diazaspiro[3.4]octan-6-yl]-3-(trifluoromethyl)pyridine-2-carbonitrile] | 13.1 | 6.76 | 98.3 |  | 98.9 |  | 0.8 |  | 2.8 |  | 0.0437 | <4.82 | <4.82
